“Also recorded” adds a separate entry of the source. Where a name gives a salt, the structure may show the parent alone.
Key:
resistant tobacco clones [1] = settings: Eibl et al. 1999; Sidorov et al. 1999; cited from earlier work
tobacco seeds = assay: Seed germination on medium containing the selection agent; assay type: in vivo, Nicotiana tabacum
Description: Lack of pleiotropic effects. […] They grew normally, flowered and set seeds. […] […] This may be due to the presence of an active endogenous BADH or similar enzymatic activity in non-green plastids during germination.

resistant tobacco clones [2] = assay: PCR screening of resistant clones for chloroplast integration; set-up: species or system Nicotiana tabacum
Description: Integration of a foreign gene into the chloroplast genome was confirmed by PCR screening of chloroplast transformants (FIG. 4). Primers were designed to eliminate mutants, nuclear integration and to determine whether the integration of foreign genes had occurred in the chloroplast genome at the directed site by homologous recombination. The strategy to distinguish between nuclear and chloroplast transgenic plants was to land one primer (3P) on the native chloroplast genome adjacent to the point of integration and the second primer (3M) on the aadA gene (FIG. 1). This primer set generated 1.6 kb PCR product in chloroplast transformants (FIG. 4). Because this product cannot be obtained in nuclear transgenic plants, the possibility of nuclear integration can be eliminated. […] The rest of the resistant shoots may be either escapes or nuclear transformants. […] In contrast, nearly 60% of the spectinomycin resistant clones were mutants. Other labs have recently reported as high as 90% mutants among spectinomycin resistant clones (Eibl et al. 1999; Sidorov et al. 1999).

[3] = system: Tobacco (Nicotiana tabacum var. Petit Havana) leaf discs; assay: Selection of bombarded tobacco leaf discs on RMOP selection medium (chloroplast transformation with pLD-BADH); assay type: cell-based; settings: for time until resistant clones formed green shoots: after initiation of selection; for leaf discs responded / resistant shoots per responding leaf disk: bombarded leaf discs under selection; for average resistant shoots per plate: spectinomycin after 45 days; for resistant shoots regenerated overall: ten bombardments (spectinomycin), six bombardments (betaine aldehyde)
Description: Expression cassettes of the chloroplast integration vector contain the chimeric aadA gene and the BADH gene driven by the constitutive 16S rRNA promoter and regulated by the 3′ untranslated region of the plastid psbA gene. The chimeric aadA gene encoding aminoglycoside 3′ adenyltransferase confers spectinomycin resistance in chloroplasts enabling selection of the transformants on spectinomycin dihydrochloride. On the other hand, BADH converts the toxic betaine aldehyde in cells to glycine betaine. When present, this pathway is compartmentalized within chloroplasts (Nuccio, et al. 1999). To facilitate translation of the dicistronic mRNA, independent Shine-Dalgarno (SD) sequences were provided to the aadA and BADH genes upstream of the initiation codons. In order to accurately compare transformation efficiency of both selectable markers under identical bombardment and transformation conditions, aadA and BADH genes were inserted into the same vector, at the same site. Bombarded leaves were treated in identical manner except the addition of selection reagent.
Tobacco (Nicotiana tabacum var. Petit Havana) was grown aseptically by germination of seeds in MSO medium. This medium contains MS salts (4.3 g/liter), B5 vitamin mixture (myoinositol, 100 mg/liter; thiamine-HCl, 10 mg/liter; nicotinic acid, 1 mg/liter; pyridoxine-HCl, 1 mg/liter), sucrose (30 g/liter) and phytagar (6 g/liter) at pH 5.8. Fully expanded, dark green leaves of about two month old plants were used for bombardment.
(§1) Leaves were placed abaxial side up on Whatman No. 1 filter papers laying on the RMOP medium (Daniell 1993) in standard petri plates (100×15 mm) for bombardment. Microprojectiles were coated with plasmid DNA (pLD-BADH) and bombardments were carried out with the biolistic device PDS 1000/He (Bio-Rad) as described by Daniell (1997). Following bombardment, petri plates were sealed with parafilm and incubated at 24° C. under 16 hour photoperiod. Two days after bombardment, leaves were chopped into small pieces of ˜5 mm^2 in size and placed on the selection medium (RMOP containing 500 μg/ml of spectinomycin dihydrochloride or 5-10 mM betaine aldehyde) with abaxial side touching the medium in deep (100×25 mm) petri plates. The regenerated resistant shoots were chopped into small pieces (˜2 mm^2) and subcloned into fresh deep petri plates containing the same selection medium. Resistant shoots from the second culture cycle were transferred to the rooting medium (MSO medium supplemented with IBA, 1 mg/liter containing appropriate selectable marker). Rooted plants were transferred to soil and grown at 26° C. under 16 hour photoperiod.
(§2) The entire process of regeneration, starting from bombardment until transfer to soil, takes about 3-6 months for spectinomycin selection and 2-3 months for betaine aldehyde selection. FIG. 3 and Table 1 show differences between the two selection processes. […] Leaf disks in FIG. 3 under betaine aldehyde selection appear partially green because they were photographed 12 days after the initiation of the selection process whereas the disc photographed on spectinomycin were 45 days after initiation of the selection process. In spite of the short period of selection one leaf disk was almost bleached (FIG. 3D) and all of them were killed after 30 days. Under 10 mM betaine aldehyde selection, control untransformed samples were killed (turned black, 3G-1) whereas transgenic leaves produced new shoots (FIG. 3G, 2-4).
When the leaf discs were selected for spectinomycin resistance, only 15% of the discs responded and an average of one resistant shoot per plate was observed after 45 days. From each callus, all resistant shoots are considered to represent an individual clone. Under betaine aldehyde selection 80% of the discs responded and an average of 25 resistant shoots per plate was observed. […]

[4] = system: untransformed N. tabacum Petit Havana leaf discs; assay: Toxicity of the selection agent to untransformed control leaf discs; assay type: cell-based, Nicotiana tabacum; settings: for effect on leaf discs under selection: RMOP selection medium
Description: A. N. tabacum Petit Havana control in RMOP medium containing spectinomycin after 45 days. B. Bombarded leaf discs selected on spectinomycin in RMOP medium after 45 days. C. Spectinomycin resistant clones cultured again ([…]) to obtain homoplasmy. D. Petit Havana control in RMOP medium containing betaine aldehyde after 12 days of culture. E. Bombarded leaf discs selected on betaine aldehyde in RMOP medium after 12 days of culture; arrow indicates unbombarded leaf disc as control. Note that 23 shoots are formed on a disc selected on betain aldehyde against 1-2 shoots per disc on spectinomycin. F. Betaine aldehyde resistant clones cultured again (second round) to obtain homoplasmy. G. Selection on 10 mM betaine aldehyde of untransformed (1) and transgenic (2-4) leaf discs.
as §1, §2

For `CN[C@@H]1[C@H](O)[C@H](NC)[C@H]2O[C@@]3(O)C(=O)C[C@@H](C)O[C@H]3O[C@@H]2[C@H]1O` [Spectinomycin, spectinomycin dihydrochloride], the “mutants among resistant clones, other labs” value (resistant tobacco clones [1]) is listed as at most 90%, the “germination of seeds from chloroplast transgenic plants” value (tobacco seeds; MS medium, 500 μg/ml spectinomycin) is listed as “germinated and grew normally” and the “mutants among resistant clones” value (resistant tobacco clones [2]; applicant's clones) is listed as about 60%. The “entire process of regeneration, bombardment until transfer to soil” value [3] was 3-6 months, the “time until resistant clones formed green shoots” value [3] was “about 45 days” and the leaf discs responded [3] was 15%. The “average resistant shoots per plate” value [3] was “one”, the “resistant shoots regenerated overall” value [3] was 10 and the “effect on leaf discs under selection” value [4] was “leaf discs continued to grow but pigments were bleached”.
For `C[N+](C)(C)CC=O` [betaine aldehyde], the “germination of untransformed seeds” value (tobacco seeds; betaine aldehyde 10-15 mM) was “germinated”, the “resistant clones with foreign genes integrated into the chloroplast genome (PCR)” value (resistant tobacco clones [2]; after the first culture cycle) was 11 out of 15 and the “entire process of regeneration, bombardment until transfer to soil” value [3] was 2-3 months. The “time until resistant clones formed green shoots” value [3] was at most 12 days, the “efficiency of transformation relative to spectinomycin selection” value ([3]; betaine aldehyde vs spectinomycin selection) was 25 fold and the leaf discs responded [3] was 80%. The “resistant shoots per responding leaf disk” value [3] was at most 23, the “resistant shoots per responding leaf disk” value ([3]; listed as betain aldehyde) was 23 and the “average resistant shoots per plate” value [3] was 25. The “resistant shoots regenerated overall” value [3] was “more than 150”, the “effect on untransformed leaf discs” value ([4]; 10 mM betaine aldehyde) was “death of untransformed leaf disc; also recorded: killed” and the “time after which all control leaf disks were killed” value ([4]; Petit Havana control in RMOP with betaine aldehyde) was 30 days. For the same molecule, the “effect on leaf discs under selection” value [4] was “growth of the leaf discs was completely inhibited and photosynthetic pigments were degraded”.
